Results published in publication PMC8429736, “Pharmacological characterization of mutant huntingtin aggregate-directed PET imaging tracer candidates” (Scientific Reports, 2021).
Where two headings read alike, the source gives them in different places.

What was measured:
Exon1-Q46 aggregates = biological target: T1, Exon1-Q46 aggregates (Homo sapiens, UniProt P42858, INS38QQQQQQQQQQQQQQQQQQQQQQQQQ); assay: RBA saturation binding, recombinant Exon1-Q46 aggregates
T1 construct: MBP-HTT(1-89)Q46-His(6x); MBP (N, cleaved yes); made in house; host or cells: E. coli BL21 (DE3)
Experimental: For N-terminal tag cleavage, proteins at 30 µM in 2 mL reaction tubes were incubated with 150 µg/mL thrombin (Sigma, T4648) in 50 mM Tris (pH 8.0), 150 mM NaCl, 2 mM CaCl2 for 16 h at 37 °C.
For radioligand binding assays (RBA) (see below) and radiometric filter trap assays (RAFTA) (see below), aggregates were separated by centrifugation (5 min 16,000×g) and resuspended with assay buffer (50 mM Tris pH 8.0, 150 mM NaCl) (see Supplementary Fig. S2B). Protein concentrations always refer to the starting peptide concentrations (i.e., peptide concentration applied in the aggregation reaction before thrombin cleavage) since post-cleaved aggregates are heterogeneous and the number of peptides per aggregate is unknown.
Samples were then transferred onto a 96-well GF/B filter plate (Perkin Elmer, #6005177) using a Filtermate Harvester, aspirated by vacuum and wells washed twice with 200 µL PBS. After drying the filter plates for 1 h at 55 °C the back of the plate was sealed with aluminum cover and 30 µL of scintillation fluid (Perkin Elmer, #6013641) per well was added. The tops of the plates were sealed, and the plates were incubated for 15 min in the dark and counted in a TopCount or MicroBeta2 reader (both Perkin Elmer).
(§1) For saturation binding experiments, aggregate lysate preparation and final concentration in the assay, assay buffer, incubation times and plate processing were identical to the competition format. Radioligand was titrated up to 100 nM. Raw cpm were converted into nM using a calibration line of total added radioligand without washing and filtering (spiked onto the filter plate and dried) (e.g., X) and normalized to the concentration of protein (e.g., Y) to finally obtain […] (e.g., X/Y). Specific binding (SB) was calculated as full binding minus full competition (in the presence of excess unlabeled ligand) and a hyperbolic mono-phasic fit was applied using GraphPad Prism to determine Kd and Bmax.

[1] = biological target: mHTT aggregates in HOM zQ175 HD mouse brain sections; assay: In vitro autoradiography (ARG) saturation binding, HOM zQ175 brain sections; conditions: HOM zQ175 12 months, cortex
Experimental: (§2) Twenty µm-thick sections were prepared from brains of disease mouse models and WT mice or human post-mortem brain samples by using a cryostat, mounted on superfrost slides and stored at -80 °C for a maximum of 2 weeks. On the day of the experiment, slides were adapted to room temperature for 30 min and then equilibrated by immersion into assay buffer (50 mM Tris–HCl pH 7.4; 120 mM NaCl; 5 mM KCl; 2 mM CaCl2; 1 mM MgCl2) for 20 min at room temperature.
(§3) Radioligand solutions were prepared in assay buffer. Optimal radioligand concentrations were determined in advance based on signal-to-background ratio obtained in mouse or human brain tissue. The solutions were mixed in a Coplin jar (Sigma, S5516-6EA) by gently shaking at 175 rpm for 10 min at room temperature. Sections were incubated by immersion into assay buffer containing either only radioligand (total binding or TB) or radioligand plus 10 µM of unlabeled compound (non-specific binding or NSB) for 60 min at room temperature. Afterwards slides were washed three times for 10 min with ice-cold washing buffer (50 mM Tris–HCl (pH 7.4)) at 4 °C and dipped for three seconds in ice-cold distilled water to remove buffer salts. […]

zQ175 brain homogenates = assay: Whole brain homogenate RBA saturation binding, HOM zQ175; parameters: species or system mouse; conditions: HOM zQ175 12 months whole brain homogenate
Experimental: (§4) For RBA in vitro binding assays, brain tissue was sliced (50 µm), weighed and homogenized in PBS (Gibco, 14190-94), 0.1% BSA with a glass pestle (10 strokes) at a concentration of 12–15 mg wet tissue per mL buffer. The crude homogenate concentration was then adjusted to 10 mg/mL (wet tissue) and stored as single-use aliquots at -80 °C.
as §1

[2] = tested on: mHTT aggregates in human HD brain sections; assay: ARG, human post-mortem HD frontal cortex sections; format: binding
[3] = ARG, human post-mortem CTRL frontal cortex sections; format: binding
[4] = biological target: beta amyloid plaques in human AD brain sections (Homo sapiens, UniProt P05067); assay: ARG, human post-mortem AD frontal cortex sections; format: binding; conditions: 1 nM radioligand
[5] = biological target: phospho-Tau tangles (AT8 antibody) (Homo sapiens, UniProt P10636); assay: HR ARG co-registration with AT8 antibody, human AD brain sections; format: binding; conditions: 10 nM CHDI-180, 10 nM CHDI-626, 0.1 nM PiB, 1 nM T808
[6] = tested on: mHTT aggregates in R6/2 mice brain sections; assay: In vitro ARG, R6/2 mouse brain sections; format: binding; conditions: 4-, 8- and 12-week-old R6/2 mice
Experimental: as §2, §3

aggregated ataxin 1 = assay: ARG, Sca1 mouse models; format: binding
Experimental: as §2, §3

R6/2 brain homogenates = assay: RBA with R6/2 brain homogenates; format: binding, mouse; conditions: data not shown
Experimental: as §4, §1

[7] = parameters: method as in PMID 34351166, PMID 32662649; conditions: cited from earlier work
[8] = 1 nM radioligand plus cold compound

T1 sequence (P42858 with tags, fused parts or gaps with the stated changes): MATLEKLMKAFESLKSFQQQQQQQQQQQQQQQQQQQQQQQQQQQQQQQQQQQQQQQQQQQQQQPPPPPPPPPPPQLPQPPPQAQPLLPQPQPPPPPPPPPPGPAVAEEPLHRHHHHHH
Sequence of beta amyloid plaques in human AD brain sections (P05067 672-713 limits assumed): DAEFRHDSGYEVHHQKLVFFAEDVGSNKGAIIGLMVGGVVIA
Sequence of phospho-Tau tangles (AT8 antibody) (P10636 623-695 limits assumed): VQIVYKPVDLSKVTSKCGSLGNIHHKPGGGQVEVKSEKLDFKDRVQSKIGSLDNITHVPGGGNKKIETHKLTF

## COc1ccc(COc2ccc3oc(-c4ccc(=O)n(C)n4)nc3c2)nc1 [CHDI-180]
Exon1-Q46 aggregates; representative single experiment (Fig. 2A)
  Bmax: 0.3 nmol/μmol
Exon1-Q46 aggregates; representative single experiment (Fig. 2A), read-out: Kd
  Kd: 3.2 nM
Exon1-Q46 aggregates; tritiated compound, mean ± SD, read-out: Kd Exon1-Q46
  Kd: 2.6 ± 0.9 nM
[1]
  Kd: 1.1 nM
[1]; per mg tissue
  ARG Bmax: 163.0 fmol/mg
zQ175 brain homogenates
  Kd: 2.4 nM
zQ175 brain homogenates; per mg tissue
  RBA Bmax: 34.0 fmol/mg
[2]; [8]
  NSB in HD brain sections: below 0.5 fmol/mg tissue
[2]; 1 nM radioligand, gray matter
  binding to frontal cortical sections from HD donors: 2.0 ± 0.4 fmol/mg tissue
[2]; 1 nM radioligand, human frontal cortex sections
  white matter binding: ≤ 0.5 fmol/mg tissue
[3]; [8]
  NSB in CTRL brain sections: below 0.5 fmol/mg tissue
[3]; 1 nM radioligand, gray matter
  binding to frontal cortical sections, CTRL tissue: 0.8 ± 0.3 fmol/mg tissue
[4]
  binding in AD post-mortem brain tissues: 5.6 ± 0.7 fmol/mg
[4]; gray matter
  binding in AD post-mortem brain tissues: 5.6 ± 0.7 fmol/mg tissue
[5]
  co-registration with AT8-positive phospho-Tau immunoreactivity: did not co-register
[6]
  specific binding to STR, CTX and HPC with age: age-dependent increase in specific binding
Aggregated ataxin 1; 1 nM radioligand, PcP2-82Q and SCA154Q/2Q mice
  binding to aggregated ataxin 1: bound to aggregated ataxin 1
Aggregated ataxin 1; brain sections of 2 Sca mouse models
  ARG signals compared to the R6/2 HD model: much lower
R6/2 brain homogenates
  binding signal: no appropriate binding signal
[7]
  plasma, microsomal, and hepatocyte stability: acceptable
